Reference: PMC9854539, “QSAR Studies, Molecular Docking, Molecular Dynamics, Synthesis, and Biological Evaluation of Novel Quinolinone-Based Thiosemicarbazones against Mycobacterium tuberculosis” (Antibiotics, 2022)
Values after ≈ are worked out from the molar mass of the structure shown.

Tests used:
[1] = test system: M. tuberculosis LAM 9; assay: Spot culture growth inhibition assay (SPOTi), MIC; type: cell-based, Mycobacterium tuberculosis; details: IC50 Vero / MIC M. tuberculosis LAM 9 (sit 42)
[2] = test system: M. tuberculosis H37Rv; assay: Spot culture growth inhibition assay (SPOTi), MIC; type: cell-based, Mycobacterium tuberculosis; details: for Selectivity Index (SI) (SI = IC50/MIC) b: IC50 Vero / MIC M. tuberculosis H37Rv; for MIC: Mycobacterium tuberculosis, H37RV, SPOTi, 2–3 weeks at 37 °C
[3] = test system: M. bovis BCG; assay: microbe, parasite or virus in culture; type: cell-based; details: for Selectivity Index (SI) (SI = IC50/MIC) a: IC50 Vero / MIC M. bovis BCG; for MIC: Mycobacterium tuberculosis variant bovis BCG, BCG, read-out: MIC M. bovis BCG
[4] = test system: M. tuberculosis Beijing; assay: Spot culture growth inhibition assay (SPOTi), MIC; type: cell-based, Mycobacterium tuberculosis; details: for Selectivity Index (SI) (SI = IC50/MIC) d: IC50 Vero / MIC M. tuberculosis Beijing
[5] = test system: M. tuberculosis Haarlem; assay: Spot culture growth inhibition assay (SPOTi), MIC; type: cell-based, Mycobacterium tuberculosis; details: IC50 Vero / MIC M. tuberculosis Haarlem
[6] = test system: M. tuberculosis Orphan; assay: Spot culture growth inhibition assay (SPOTi), MIC; type: cell-based, Mycobacterium tuberculosis; details: IC50 Vero / MIC M. tuberculosis orphan
[7] = test system: M. tuberculosis ATCC 35822; assay: Spot culture growth inhibition assay (SPOTi), MIC; type: cell-based, Mycobacterium tuberculosis; details: IC50 Vero / MIC M. tuberculosis ATCC 35822 RI
[8] = test system: M. tuberculosis ATCC 35838; assay: Spot culture growth inhibition assay (SPOTi), MIC; type: cell-based, Mycobacterium tuberculosis; details: IC50 Vero / MIC M. tuberculosis ATCC 35838 RR
[9] = MTT cytotoxicity assay; details: African green monkey
[10] = test system: M. tuberculosis H37RV strain; design: method as in earlier work; details: cited from earlier work; for MIC: observed activity of QSAR data set; for MIC exp (log (1/molarMIC)): pMIC from literature MIC in mol/L

For CC(/C=C/c1cc2cc(C)ccc2[nH]c1=O)=N\NC(N)=S [Compound 11b, (E)-2-((E)-4-(6-Methyl-2-oxo-1,2-dihydroquinolin-3-yl)but-3-en-2-ylidene)hydrazine-1-carbothioamide], the “Selectivity Index (SI) (SI = IC50/MIC) e” value [1] was 0.21, the “Selectivity Index (SI) (SI = IC50/MIC) b” value [2] was 22.06 and the MIC [2] was 0.16 µM (≈ 0.0481 µg/mL). The “Selectivity Index (SI) (SI = IC50/MIC) a” value [3] was 22.06, the MIC [3] was 0.16 µM (≈ 0.0481 µg/mL) and the “Selectivity Index (SI) (SI = IC50/MIC) d” value [4] was 2.13. For the same compound, the “Selectivity Index (SI) (SI = IC50/MIC) f” value [5] was 1.06, the “Selectivity Index (SI) (SI = IC50/MIC) c” value [6] was 0.11 and the “Selectivity Index (SI) (SI = IC50/MIC) h” value [7] was 1.06. For the same compound, the “Selectivity Index (SI) (SI = IC50/MIC) g” value [8] was 1.06 and the IC50 at 48 h [9] was 3530 nM.
With CC(/C=C/c1cc2cccc(C)c2[nH]c1=O)=N\NC(N)=S [Compound 11c, (E)-2-((E)-4-(8-Methyl-2-oxo-1,2-dihydroquinolin-3-yl)but-3-en-2-ylidene)hydrazine-1-carbothioamide] the “Selectivity Index (SI) (SI = IC50/MIC) e” value [1] was 0.58, the “Selectivity Index (SI) (SI = IC50/MIC) b” value [2] was 11.88 and the MIC [2] was 0.16 µM (≈ 0.0481 µg/mL). The “Selectivity Index (SI) (SI = IC50/MIC) a” value [3] was 5.75, the MIC [3] was 0.33 µM (≈ 0.0991 µg/mL) and the “Selectivity Index (SI) (SI = IC50/MIC) d” value [4] was 5.76. The “Selectivity Index (SI) (SI = IC50/MIC) f” value [5] was 0.06, the “Selectivity Index (SI) (SI = IC50/MIC) c” value [6] was 0.03 and the “Selectivity Index (SI) (SI = IC50/MIC) h” value [7] was 5.76. The melting point was 241 °C, the “Selectivity Index (SI) (SI = IC50/MIC) g” value [8] was 1.14 and the IC50 at 48 h [9] was 1900 nM.
For CC(/C=C/c1cc2ccc(Cl)cc2[nH]c1=O)=N\NC(N)=S [Compound 11d, (E)-2-((E)-4-(7-Chloro-2-oxo-1,2-dihydroquinolin-3-yl)but-3-en-2-ylidene)hydrazine-1-carbothioamide], the “Selectivity Index (SI) (SI = IC50/MIC) e” value [1] was 0.53, the “Selectivity Index (SI) (SI = IC50/MIC) b” value [2] was 11.00 and the MIC [2] was 0.15 µM (≈ 0.0481 µg/mL). The “Selectivity Index (SI) (SI = IC50/MIC) a” value [3] was 55.00, the MIC [3] was 0.03 µM (≈ 0.00962 µg/mL) and the “Selectivity Index (SI) (SI = IC50/MIC) d” value [4] was 5.00. The “Selectivity Index (SI) (SI = IC50/MIC) f” value [5] was 1.06, the “Selectivity Index (SI) (SI = IC50/MIC) c” value [6] was 0.26 and the “Selectivity Index (SI) (SI = IC50/MIC) h” value [7] was 0.26. For the same compound, the melting point was 246 °C, the “Selectivity Index (SI) (SI = IC50/MIC) g” value [8] was 0.50 and the IC50 at 48 h [9] was 1650 nM.
With CC(/C=C/c1cc2cc(Br)ccc2[nH]c1=O)=N\NC(N)=S [Compound 11e, (E)-2-((E)-4-(6-Bromo-2-oxo-1,2-dihydroquinolin-3-yl)but-3-en-2-ylidene)hydrazine-1-carbothioamide] the “Selectivity Index (SI) (SI = IC50/MIC) e” value [1] was 0.80, the “Selectivity Index (SI) (SI = IC50/MIC) b” value [2] was 16.92 and the MIC [2] was 0.13 µM (≈ 0.0475 µg/mL). For the same compound, the “Selectivity Index (SI) (SI = IC50/MIC) a” value [3] was 16.92, the MIC [3] was 0.13 µM (≈ 0.0475 µg/mL) and the “Selectivity Index (SI) (SI = IC50/MIC) d” value [4] was 8.15. For the same compound, the “potency relative to Oxafloxacin” value ([4]; M. tuberculosis Beijing) was “tenfold more potent than Oxafloxacin”, the “Selectivity Index (SI) (SI = IC50/MIC) f” value [5] was 0.08 and the “Selectivity Index (SI) (SI = IC50/MIC) c” value [6] was 0.08. For the same compound, the “Selectivity Index (SI) (SI = IC50/MIC) h” value [7] was 1.61, the melting point was 253 °C and the “Selectivity Index (SI) (SI = IC50/MIC) g” value [8] was 0.81. It also gave an IC50 at 48 h [9] of 2200 nM.
In the case of O=C(NCCNc1ccnc2cc(Cl)ccc12)Nc1ccc(Cl)cc1 [Compound 18], the “MIC” value [10] is listed as 10.65 µM (≈ 4 µg/mL) and the “MIC exp (log (1/molarMIC))” value [10] is listed as 4.97.
In the case of O=[N+]([O-])c1ccc(N2CCN(c3ccnc4cc(Cl)ccc34)CC2)c2nonc12 [Compound 19], the “MIC” value [10] is given as 7.26 µM (≈ 2.98 µg/mL) and the “MIC exp (log (1/molarMIC))” value [10] is given as 5.13.
For O=C(NNc1ccnc2cc(Cl)ccc12)c1ccccc1N=Cc1ccc(F)cc1 [Compound 20], the “MIC” value [10] is listed as 6.25 µM (≈ 2.62 µg/mL) and the “MIC exp (log (1/molarMIC))” value [10] is listed as 5.2.
For O=C(NNc1ccnc2cc(Cl)ccc12)c1ccccc1N=Cc1ccc(Br)cc1 [Compound 21], the “MIC” value [10] is listed as 6.25 µM (≈ 3 µg/mL) and the “MIC exp (log (1/molarMIC))” value [10] is listed as 5.2.
For O=C(NNc1ccnc2cc(Cl)ccc12)c1ccccc1N=Cc1ccc(Cl)cc1Cl [Compound 22], the “MIC” value [10] is given as 6.25 µM (≈ 2.94 µg/mL) and the “MIC exp (log (1/molarMIC))” value [10] is given as 5.20.
For COc1ccc(C=Nc2ccccc2C(=O)NNc2ccnc3cc(Cl)ccc23)cc1OC [Compound 23], the “MIC” value [10] is given as 6.25 µM (≈ 2.88 µg/mL) and the “MIC exp (log (1/molarMIC))” value [10] is given as 5.20.
For COc1cc(C=Nc2ccccc2C(=O)NNc2ccnc3cc(Cl)ccc23)cc(OC)c1OC [Compound 24], the “MIC” value [10] is given as 6.25 µM (≈ 3.07 µg/mL) and the “MIC exp (log (1/molarMIC))” value [10] is given as 5.20.
In the case of O=C(NNc1ccnc2cc(Cl)ccc12)c1ccccc1N=Cc1ccc(-c2cccs2)cc1 [Compound 25], the “MIC” value [10] is given as 6.25 µM (≈ 3.02 µg/mL) and the “MIC exp (log (1/molarMIC))” value [10] is given as 5.20.
For O=C(NNc1ccnc2cc(Cl)ccc12)c1ccccc1N=CC=Cc1ccccc1 [Compound 26], the “MIC” value [10] is given as 3.12 µM (≈ 1.33 µg/mL) and the “MIC exp (log (1/molarMIC))” value [10] is given as 5.51.
In the case of Cc1nc2ccccc2c(-c2ccccc2)c1C(=O)c1ccccc1 [Compound 27], the “MIC” value [10] is listed as 19.33 µM (≈ 6.25 µg/mL) and the “MIC exp (log (1/molarMIC))” value [10] is listed as 4.71.
